In US6284768A, “Src family SH2 domain inhibitors” (Boehringer Ingelheim Pharmaceuticals, Inc., priority 1999, dated 2001) one finds Kd data, which are given here for 37 compounds.

The test deals with T1, p56lck GST-SH2 (lck SH2 domain) (Homo sapiens, UniProt P06239).
T1 construct: GST (N)
Nature of the test: Receptor-ligand equilibrium binding constants by surface plasmon resonance (biosensor), lck SH2 domain. The conditions noted are these: Table 1, compounds of formula (II). How it is done: The general methods for the determination of Receptor-Ligand Kinetic and Equilibrium Binding Constants using Surface Plasmon Resonance as applied to the lck SH2 Domain have been described in: M. M. Morelock, R. H. Ingraham, R. Betageri.
General Biosensor Methods.
The mobile phase buffer, 10 mM HEPES, pH 7.4, 150 mM NaCl, and 0.05% P-20, was maintained at a flow rate of 5 μL/min in all experiments. All buffers and protein solutions were filtered through a 0.2 um filter and degassed immediately before use.
Strepavidin was diluted to 0.25 mg/ml in 20 mM NaOAc buffer, pH 4.5 and immobilized by free amine coupling to approximately 3000 RU for all 4 flow cells from a single sensor chip .
Surface Kd Determinations.
The surface was regenerated by 4μL of 20 mM HCl followed by 4 μL of 150 mM Tris base. The values used in the analysis were the equilibrium plateau values from which the sample refractive index has been subtracted. For the data analyzed for linear function the equilibrium plateau values without the sample refractive index subtracted were used. Free solution Kd determinations. In a 96 well microtiter plate 20 nM SH2 domain suspended in running buffer containing 0.2 mg/ml BSA and 1 mM DT'T was distributed in 100 μL per well. The highest concentration of compound tested was added to the last well and titrated with 2 fold dilutions for a final of 10 concentrations to be run. 25 μL of the mixture was injected over a strepavidin-biotin-ε-aminohexanoic acid-EGQpYEEIPIA surface and regenerated with 4 μL of 20 mM HCl. […], of 150 mM Tris base was injected after every 11 samples. Typically 8 assays were run in an overnight programmed run.

T1 sequence (P06239 127-224 limits assumed): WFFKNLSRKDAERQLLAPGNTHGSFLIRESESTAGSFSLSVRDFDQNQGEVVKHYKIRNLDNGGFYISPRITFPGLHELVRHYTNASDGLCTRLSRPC

`COCCOCn1ccc(C)c(NC(=O)C(Cc2ccc(C(C)(C)C(=O)O)cc2)NC(=O)Cc2ccc3ccccc3c2)c1=O` (stereo not shown) [Compound 189] displayed a Kd of 13 µM. That is a double-digit micromolar value.
For the compound `COc1ccc(Cn2ccc(C)c(NC(=O)[C@H](Cc3ccc(CC(=O)O)cc3)NC(=O)C3(c4ccccc4)CC3)c2=O)cc1` [Compound 77], the Kd stood at 20 µM.
`COc1ccc(Cn2ccc(C)c(NC(=O)C(Cc3ccc(C(C)(C)C(=O)O)cc3)NC(=O)C(C)(C)C)c2=O)cc1` (stereo not shown) [Compound 171] came in with an equilibrium dissociation constant (Kd) of 4.3 µM.
As for `COc1ccc(Cn2ccc(C)c(NC(=O)C(Cc3ccc(C(C)(C)C(=O)O)cc3)N(C)C(=O)Cc3ccc4ccccc4c3)c2=O)cc1` (racemic) [Compound 152, 3-[2'-(R,S)-(N-Methyl-N-(2""-naphthylacetyl)amino-3'-[4"-(1'"-carboxy-1'"-methyl)ethyl]benzene]propanoylamino-1-(4-methoxybenzyl)-4-methyl-2-pyridone], the affinity, expressed as Kd, was 4.5 µM.
The same measure for `COc1ccc(Cn2ccc(C)c(NC(=O)[C@H](Cc3ccc(C(C)(C)C(=O)O)cc3)NC(=O)Cc3ccc(C)cc3)c2=O)cc1` [Compound 114]: 0.19 µM; for `CCc1ccn(Cc2ccc(OC)cc2)c(=O)c1NC(=O)[C@H](Cc1ccc(CC(=O)O)cc1)NC(=O)Cc1cccc2ccccc12` [Compound 92, 3-[2'-(S)-(1'"-Naphthylacetyl)amino-3'-(4"-carboxymethyl)benzene]propanoylamino-1-(4-methoxy)benzyl-4-ethyl-2-pyridone]: 3.8 µM; for `COc1ccc(Cn2ccc(C)c(NC(=O)[C@H](Cc3ccc(C(O)C(=O)O)cc3)NC(=O)Cc3cccc4ccccc34)c2=O)cc1` (stereo partly drawn) [Compound 8, 3-[2'-(S)-(1""-Naphthylacetyl)amino-3'-[4"-(1'"-hydroxy-1'"-carboxy)methyl]benzene]propanoylamino-1-(4-methoxybenzyl)-4-methyl-2-pyridone]: 0.99 µM.
On to `CCCCCn1ccc(C)c(NC(=O)[C@H](Cc2ccc(CC(=O)O)cc2)NC(=O)C(C)(C)C)c1=O` [Compound 69], for which the Kd came out at 89 µM. This Kd is about 90-fold higher than that of the compound before.
Turning to `COc1ccc(Cn2cccc(NC(=O)[C@H](Cc3ccc(CC(=O)O)cc3)NC(=O)Cc3cccc4ccccc34)c2=O)cc1` [Compound 90], the Kd was over 250 µM.
Next, `COc1ccc(Cn2ccc(C)c(NC(=O)C(Cc3ccc(C(C)(C)C(=O)O)cc3)N(C)C(=O)C(C)(C)c3ccc4ccccc4c3)c2=O)cc1` (stereo not shown) [Compound 161]: 460 µM; `COc1ccc(Cn2ccc(C)c(NC(=O)[C@H](Cc3ccc(CC(=O)O)cc3)NC(=O)Cc3cccc4ccccc34)c2=O)cc1` [Compound 88]: 4.4 µM.
The compound `Cc1ccn(CCc2ccccc2)c(=O)c1NC(=O)[C@H](Cc1ccc(CC(=O)O)cc1)NC(=O)Cc1cccc2ccccc12` [Compound 21] returned a Kd of 30.5 µM.
The compound `COc1ccc(Cn2cc(Br)c(C)c(NC(=O)C(Cc3ccc(C(C)(C)C(=O)O)cc3)NC(=O)C(C)(C)c3ccc(Br)cc3)c2=O)cc1` (stereo not shown) [Compound 122] gave a Kd of 5.3 µM.
`Cc1ccn(Cc2ccoc2)c(=O)c1NC(=O)C(Cc1ccc(C(C)(C)C(=O)O)cc1)NC(=O)Cc1cccc2ccccc12` (stereo not shown) [Compound 201] displayed a Kd of 6.7 µM.
As to `COc1ccc(Cn2ccc(C)c(NC(=O)[C@H](Cc3ccc(NC(=O)C(=O)O)cc3)NC(=O)Cc3cccc4ccccc34)c2=O)cc1` [Compound 52], the affinity, expressed as Kd, was 0.24 µM.
The same measure for `COCCOCCn1ccc(C)c(NC(=O)C(Cc2ccc(C(C)(C)C(=O)O)cc2)NC(=O)C(C)(C)c2ccc3ccccc3c2)c1=O` (stereo not shown) [Compound 144]: 20 µM; for `CCCCCn1ccc(C)c(NC(=O)[C@H](Cc2ccc(CC(=O)O)cc2)NC(=O)Cc2cccc3ccccc23)c1=O` [Compound 70]: 24 µM.
The compound `COc1ccc(Cn2ccc(C)c(NC(=O)[C@H](Cc3ccc(N(O)C(=O)C(=O)O)cc3)NC(C)=O)c2=O)cc1` [Compound 95] yielded a Kd of 5.4 µM.
`COc1ccc(Cn2ccc(C)c(NC(=O)C(Cc3ccc(C(C)(C)C(=O)O)cc3)NC(=O)Cc3ccc4ccccc4c3)c2=O)cc1O` (stereo not shown) [Compound 160] gave a Kd of 5.8 µM.
In turn, `COc1ccc(Cn2ccc(C)c(NC(=O)[C@H](Cc3ccc(CC(=O)O)cc3)NC(=O)Cc3ccc(N(C)C)cc3)c2=O)cc1` [Compound 93] returned a Kd of 12 µM.
Next, `COC1CCC(Cn2ccc(C)c(NC(=O)C(Cc3ccc(C(C)(C)C(=O)O)cc3)NC(=O)Cc3ccc4ccccc4c3)c2=O)CC1` (stereo not shown) [Compound 147]: 1.9 µM; `COc1ccc(Cn2ccc(C)c(NC(=O)[C@H](Cc3ccc(CC(=O)O)cc3)NC(=O)OCc3ccccc3)c2=O)cc1` [Compound 57]: 15 µM.
The same measure for `Cc1ccn(C/C=C/c2ccccc2)c(=O)c1NC(=O)C(Cc1ccc(C(C)(C)C(=O)O)cc1)NC(=O)Cc1ccc2ccccc2c1` (racemic) [Compound 115]: 1.2 µM; for `Cc1ccc(Cn2ccc(C)c(NC(=O)[C@H](Cc3ccc(CC(=O)O)cc3)NC(=O)Cc3cccc4ccccc34)c2=O)cc1` [Compound 56]: 7.1 µM; for `COc1ccc(Cn2ccc(C)c(NC(=O)[C@H](Cc3ccc(CC(=O)O)cc3)NC(=O)C3(c4ccccc4)CCOCC3)c2=O)cc1` [Compound 80]: 20 µM.
For `Cc1ccn(Cc2ccccn2)c(=O)c1NC(=O)[C@H](Cc1ccc(CC(=O)O)cc1)NC(=O)Cc1cccc2ccccc12` [Compound 23], the Kd is 55.7 µM.
`Cc1ccn(CC2CCOC2)c(=O)c1NC(=O)C(Cc1ccc(C(C)(C)C(=O)O)cc1)NC(=O)Cc1ccc2ccccc2c1` (stereo not shown) [Compound 211] gave a Kd of 4.9 µM.
Next, `COc1ccc(Cn2ccc(C)c(NC(=O)[C@H](Cc3ccc(CC(=O)O)cc3)NC(=O)C(C)C)c2=O)cc1` [Compound 75]: 6.7 µM; `COc1ccc(Cn2ccc(C)c(NC(=O)[C@H](Cc3ccc(NC(=O)C(=O)O)cc3)NC(=O)Cc3ccccc3[N+](=O)[O-])c2=O)cc1` [Compound 34]: 2.4 µM.
On to `COc1ccccc1Cn1ccc(C)c(NC(=O)[C@H](Cc2ccc(CC(=O)O)cc2)NC(=O)Cc2cccc3ccccc23)c1=O` [Compound 19], for which binding was characterised by a dissociation constant (Kd) of 37.2 µM.
Next, `Cc1ccn(Cc2ccc(C(C)C)cc2)c(=O)c1NC(=O)[C@H](Cc1ccc(CC(=O)O)cc1)NC(=O)Cc1cccc2ccccc12` [Compound 54]: over 500 µM; `COc1ccc(Cn2ccc(C)c(NC(=O)[C@H](Cc3ccc(CC(=O)O)cc3)NC(=O)COc3nccc4ccccc34)c2=O)cc1` [Compound 85]: 2.6 µM.
Compound `COc1ccc(Cn2ccc(C)c(NC(=O)[C@H](Cc3ccc(CC(=O)O)cc3)NC(=O)COc3cccc4ccccc34)c2=O)cc1` [Compound 72] returned a Kd of 2.5 µM.
Compound `COc1ccc(Cn2ccc(CCO)c(NC(=O)C(Cc3ccc(C(C)(C)C(=O)O)cc3)NC(=O)C(C)(C)c3ccc4ccccc4c3)c2=O)cc1` (stereo not shown) [Compound 223] came in with a Kd of 2.4 µM.
`COc1ccc(Cn2ccc(C)c(NC(=O)[C@H](Cc3ccc(C(C)(C)C(=O)O)cc3)NC(=O)Cc3c[nH]c4ccccc34)c2=O)cc1` [Compound 98]: binding was put at a Kd of 0.43 µM.
The same measure for `COc1ccc(Cn2ccc(C)c(NC(=O)[C@H](Cc3ccc(NC(=O)C(=O)O)cc3)NC(=O)Cc3c(C)[nH]c4ccccc34)c2=O)cc1` [Compound 28]: 1.1 µM.
Compound `COc1ccc(Cn2ccc(C)c(NC(=O)[C@H](Cc3ccc(NC(=O)C(=O)O)cc3)NC(=O)Cc3sc(N)nc3-c3ccccc3)c2=O)cc1` [Compound 11] yielded a Kd of 2.9 µM. This Kd lies about 2.6-fold higher than the previous one.
